≈ marks a conversion by molar mass, not a printed value.
Tests used:
[1] = tested on: A549; experiment: Cytotoxicity against human A549 cells incubated for 48 hrs by MTT assay; assay type: functional, cell-based; settings: A549, 48 h
[2] = tested on: Tobacco mosaic virus; experiment: Antiviral activity against 30 mins compound pre-treated TMV U1 infected on Nicotiana glutinosa leaves assessed as virus inactivation effect by measuring local lesion numbers after 3 to 4 days post virus inoculation at 50 ug/ml by half-leaf method; assay type: functional; settings: U1, in Nicotiana glutinosa
[3] = tested on: SMMC-7721; experiment: Cytotoxicity against human SMMC7721 cells incubated for 48 hrs by MTT assay; assay type: functional, cell-based; settings: SMMC-7721, 48 h
[4] = tested on: SW480; experiment: Cytotoxicity against human SW480 cells incubated for 48 hrs by MTT assay; assay type: functional, cell-based; settings: SW480, 48 h
[5] = tested on: Tobacco mosaic virus; experiment: Antiviral activity against TMV U1 infected on 20 mins compound treated fresh leaves from 5 to 6 growth stage Nicotiana glutinosa assessed as inhibition of virus growth at 50 ug/ml cultured at 25 degC for 72 hrs by half-leaf method; assay type: functional; settings: U1, in Nicotiana glutinosa
[6] = tested on: Tobacco mosaic virus; experiment: Antiviral activity against TMV U1 infected on Nicotiana glutinosa leaves smeared with virus before compound treatment assessed as virus infection curative effect by measuring local lesion numbers after 3 to 4 days post virus inoculation at 200 ug/ml by half-leaf method; assay type: functional; settings: U1, in Nicotiana glutinosa
[7] = tested on: HL-60; experiment: Cytotoxicity against human HL60 cells incubated for 48 hrs by MTT assay; assay type: functional, cell-based; settings: HL-60, 48 h
[8] = tested on: Tobacco mosaic virus; experiment: Antiviral activity against TMV U1 infected on compound smeared Nicotiana glutinosa leaves assessed as virus infection protective effect by measuring local lesion numbers after 3 to 4 days post virus inoculation at 200 ug/ml by half-leaf method; assay type: functional; settings: U1, in Nicotiana glutinosa
[9] = tested on: MCF7; experiment: Cytotoxicity against human MCF7 cells incubated for 48 hrs by MTT assay; assay type: functional, cell-based; settings: MCF7, 48 h
[10] = tested on: Tobacco mosaic virus; experiment: Antiviral activity against 30 mins compound pre-treated TMV U1 infected on Nicotiana glutinosa leaves assessed as virus inactivation effect by measuring local lesion numbers after 3 to 4 days post virus inoculation at 10 ug/ml by half-leaf method relative to untreated control; assay type: functional; settings: U1, in Nicotiana glutinosa
[11] = tested on: Tobacco mosaic virus; experiment: Antiviral activity against 30 mins compound pre-treated TMV U1 infected on Nicotiana glutinosa leaves assessed as virus inactivation effect by measuring local lesion numbers after 3 to 4 days post virus inoculation at 20 ug/ml by half-leaf method relative to untreated control; assay type: functional; settings: U1, in Nicotiana glutinosa
[12] = tested on: Tobacco mosaic virus; experiment: Antiviral activity against 30 mins compound pre-treated TMV U1 infected on Nicotiana glutinosa leaves assessed as virus inactivation effect by measuring local lesion numbers after 3 to 4 days post virus inoculation at 5 ug/ml by half-leaf method relative to untreated control; assay type: functional; settings: U1, in Nicotiana glutinosa
[13] = tested on: Tobacco mosaic virus; experiment: Antiviral activity against 30 mins compound pre-treated TMV U1 infected on Nicotiana glutinosa leaves assessed as virus inactivation effect by measuring local lesion numbers after 3 to 4 days post virus inoculation at 50 ug/ml by half-leaf method relative to untreated control; assay type: functional; settings: U1, in Nicotiana glutinosa
[14] = tested on: Tobacco mosaic virus; experiment: Antiviral activity against 30 mins compound pre-treated TMV U1 infected on Nicotiana glutinosa leaves assessed as virus inactivation effect by measuring local lesion numbers after 3 to 4 days post virus inoculation at 30 ug/ml by half-leaf method relative to untreated control; assay type: functional; settings: U1, in Nicotiana glutinosa
[15] = tested on: Tobacco mosaic virus; experiment: Antiviral activity against 30 mins compound pre-treated TMV U1 infected on Nicotiana glutinosa leaves assessed as virus inactivation effect by measuring local lesion numbers after 3 to 4 days post virus inoculation at 40 ug/ml by half-leaf method relative to untreated control; assay type: functional; settings: U1, in Nicotiana glutinosa
[16] = tested on: Tobacco mosaic virus; experiment: Antiviral activity against 30 mins compound pre-treated TMV U1 infected on Nicotiana glutinosa leaves assessed as virus inactivation effect by measuring local lesion numbers after 3 to 4 days post virus inoculation by half-leaf method relative to untreated control; assay type: functional, organism-based

SMILES	IC50 [1] [µM]	inhibition at 50 µg/mL [2] [%]	IC50 [3] [µM]	IC50 [4] [µM]	inhibition at 50 µg/mL [5] [%]	inhibition at 200 µg/mL [6] [%]	IC50 [7] [µM]	inhibition at 200 µg/mL [8] [%]	IC50 [9] [µM]	inhibition at 10 µg/mL [10] [%]	inhibition at 20 µg/mL [11] [%]	inhibition at 5 µg/mL [12] [%]	inhibition at 50 µg/mL [13] [%]	inhibition at 30 µg/mL [14] [%]	inhibition at 40 µg/mL [15] [%]	IC50 [16] [µg/mL]
C=C1[C@@H]([C@@]2(C)C=CC(=O)OC(C)(C)[C@@H]2CC(=O)OC)[C@@H](OC(C)=O)[C@H](OC(C)=O)[C@@]2(C)[C@H](C(=O)O)C[C@H]3O[C@]132	> 10	32.5	> 10	> 10	30.7	27.3	> 10	30.5	> 10							
CC(=O)O[C@@H]1[C@@H]2[C@@]3(C)[C@@H](OC(C)=O)CC(=O)OC(C)(C)[C@@H]3CC(=O)[C@@]2(C)[C@@]23O[C@@H]2C[C@@H](c2ccoc2)[C@]3(C)[C@H]1OC(C)=O	> 10	95.3	> 10	> 10	97.6	57.6	> 10	60.2	> 10	28.7	64.9	9.7	93.9	80.3	91.4	20.4 (≈ 34 µM)
CC(=O)O[C@H]1C[C@@H]2[C@@]3(C)[C@@H](OC(C)=O)CC(=O)OC(C)(C)[C@@H]3CC[C@@]2(C)C2=CC[C@@H](c3ccoc3)[C@@]21C	> 10	81.8	> 10	> 10	89	29.9	> 10	36.4	> 10	20.3	38.1		83.6	63.4	73.7	27.7 (≈ 54 µM)
C/C=C(\C)C(=O)O[C@H]1C[C@@H](OC(C)=O)[C@@]2(C)CO[C@H]3[C@@H](O)[C@@]4(C)C5=C(C)[C@H](c6ccoc6)C[C@@H]5O[C@H](OC)C[C@@H]4[C@]1(C)[C@@H]32	> 10	91.4	> 10	> 10	97.9	59.6	> 10	63.8	> 10	20.5	39.7		92.8	68.2	79.8	25.8 (≈ 43.1 µM)
C/C=C(\C)C(=O)O[C@H]1C[C@@H](OC(C)=O)[C@@]2(C)CO[C@H]3[C@@H](O)[C@@]4(C)C5=C(C)[C@H](c6ccoc6)C[C@H]5O[C@@H](OC)C[C@@H]4[C@]1(C)[C@@H]32	> 10	88.9	> 10	> 10	98.5	44.9	> 10	63.8	> 10	16.4	30.7	6.3	86.9	63.5	70.3	28.1 (≈ 46.9 µM)
C/C=C(\C)C(=O)O[C@H]1C[C@@H](OC(C)=O)[C@@]2(C)CO[C@H]3[C@@H](O)[C@@]4(C)C5=C(C)[C@H](c6ccoc6)C[C@@H]5OC=C[C@@H]4[C@]1(C)[C@@H]32	> 10	38.5	> 10	> 10	49.3	20.1	> 10	24.7	> 10							
CC(=O)O[C@H]1[C@@H](OC(C)=O)[C@@]2(C)C3=CC[C@@H](c4ccoc4)[C@]3(C)CC[C@@H]2[C@@]2(C)[C@@H](O)C[C@@H](OC(C)=O)C(C)(C)[C@H]12	> 10	30.2	> 10	> 10	33.6	23.6	> 10	25.3	> 10							
C/C=C(\C)C(=O)O[C@H]1C[C@@H](OC(C)=O)[C@@]2(C)CO[C@H]3[C@@H](O)[C@]4(C)[C@H](CC(OC)O[C@H]5C[C@@H](c6ccoc6)C(C)[C@H]54)[C@]1(C)[C@@H]32 (stereo partly drawn)	> 10	31.5	> 10	> 10	43.9	53.6	> 10	50	> 10							
CO[C@H]1C[C@H]2[C@](C)(C3=C(C)[C@H](c4ccoc4)C[C@@H]3O1)[C@H](O)[C@@H]1OC[C@]3(C)[C@H](OC(C)=O)C[C@H](OC(=O)c4ccccc4)[C@@]2(C)[C@@H]13	> 10	30.9	> 10	> 10	41.5	19.3	> 10	15	> 10							
COC(=O)C[C@@H]1C(C)=C/C(=C\C2=C[C@@H](OC(C)=O)[C@H](OC(C)=O)[C@]3(C)C2=CC[C@H]3c2ccoc2)C(=O)OC1(C)C	> 10	27.6	> 10	> 10	30.1	27.9	> 10	28.3	> 10							
CC(=O)O[C@@H]1[C@H](O)[C@H]2C(C)(C)[C@H](OC(C)=O)C[C@H](OC(C)=O)[C@]2(C)[C@H]2CC[C@]3(C)C(=CC[C@H]3c3ccoc3)[C@]12C	> 10	21.2	> 10	> 10	18.5	15.4	> 10	19.4	> 10							
C/C=C(\C)C(=O)O[C@@H]1[C@@H]2OC[C@]3(C)[C@H](OC(C)=O)C[C@H](O)[C@@](C)([C@@H]23)[C@H]2CCO[C@H]3C[C@@H](C4=CCOC4=O)C(C)=C3[C@]12C [CHISONIMBOLININ F]	> 10	34.1	> 10	> 10	44.5	20.5	> 10	17.3	> 10							
C=C1[C@@H]([C@@]2(C)C=CC(=O)O[C@](C)(COC(C)=O)[C@@H]2CC(=O)OC)[C@@H](OC=O)[C@H](OC(=O)[C@H](O)[C@H](C)CC)[C@@]2(C)[C@@H](c3ccoc3)C[C@H]3O[C@]132 [MOMBASOL]	> 10	38.9	> 10	> 10	47.6	28.1	> 10	31.6	> 10							
CNCC(=O)N[C@@H](CO)C(=O)N[C@H]1[C@H](O)[C@@H](O)[C@H](n2ccc(N)nc2=O)O[C@@H]1C(N)=O [NINGNANMYCIN]		58.9			69.2	40.7		50.2		17.9	20.8		57.3	33.9	38.6	44.6 (≈ 101 µM)
CC(=O)O[C@H]1C(=O)[C@@]2(C)[C@H]([C@H](OC(=O)c3ccccc3)[C@]3(O)C[C@H](OC(=O)[C@H](O)[C@@H](NC(=O)c4ccccc4)c4ccccc4)C(C)=C1C3(C)C)[C@]1(OC(C)=O)CO[C@@H]1C[C@@H]2O [PACLITAXEL]	< 0.008		< 0.008	< 0.008			< 0.008		< 0.008							
C=C1[C@@H]([C@@]2(C)[C@@H](OC(C)=O)CC(=O)O[C@](C)(COC(C)=O)[C@@H]2C(=O)OC)[C@@H](OC=O)[C@H](OC(=O)[C@H](O)[C@H](C)CC)[C@@]2(C)[C@H](c3ccoc3)CC(=O)[C@]12O [PRIEURIANIN]	1	68.1	0.73	1.2	75.9	41.6	4.8	45.7	2.2	3.5	11.7		70.5	35.6	39.3	44.4 (≈ 59.3 µM)

Reference: ChEMBL document CHEMBL3580639, “Bioactive Limonoid Constituents of Munronia henryi” (J Nat Prod, 2015)
